Source: patent US8034941B2, “Imidazopyridazinone and imidazopyridone derivatives, the preparation thereof and their use as pharmaceutical compositions” (Boehringer Ingelheim International GmbH, priority 2003, dated 2011)

What was measured:
DPP-IV = target: T1, DPP-IV (Homo sapiens, UniProt P27487); assay: DPP-IV assay with Caco-2 cell extract as DPP IV source, AFC substrate, fluorescence; format: biochemical; details: extract of human colon carcinoma cell line Caco-2; substrate 100 μM; 60 minutes at ambient temperature; read-out: DPP IV inhibition IC50
T1 construct: an extract of human colon carcinoma cell line Caco-2 is used as the DPP IV source; endogenous in cells; host or cells: Caco-2 (human colon carcinoma), differentiated to induce DPP-IV expression; Nonidet-P40 solubilised extract
Experimental: The cell extract was obtained from cells solubilised in a buffer (10 mM Tris HCl, 0.15 M NaCl, 0.04 t.i.u. aprotinin, 0.5% Nonidet-P40, pH 8.0) by centrifuging at 35,000 g for 30 minutes at 4° C. (to remove cell debris).
The DPP-IV assay was carried out as follows:
50 μl substrate solution (AFC; AFC is amido-4-trifluoromethylcoumarin), final concentration 100 μM, were placed in black microtitre plates. 20 μl of assay buffer (final concentrations 50 mM Tris HCl pH 7.8, 50 mM NaCl, 1% DMSO) was pipetted in. The reaction was started by adding 30 μl of solubilised Caco-2 protein (final concentration 0.14 μg of protein per well). The test substances to be investigated were typically added prediluted in 20 μl, and the volume of assay buffer was then reduced accordingly. The reaction was carried out at ambient temperature, incubating for 60 minutes. […] Blank readings (corresponding to 0% activity) were obtained in mixtures without any Caco-2 protein (volume replaced by assay buffer), control values (corresponding to 100% activity) were obtained in mixtures with no substance added.

rats = assay: Tolerability after oral administration to rats (behaviour); format: in vivo; details: 10 mg/kg

T1 sequence (P27487 whole entry): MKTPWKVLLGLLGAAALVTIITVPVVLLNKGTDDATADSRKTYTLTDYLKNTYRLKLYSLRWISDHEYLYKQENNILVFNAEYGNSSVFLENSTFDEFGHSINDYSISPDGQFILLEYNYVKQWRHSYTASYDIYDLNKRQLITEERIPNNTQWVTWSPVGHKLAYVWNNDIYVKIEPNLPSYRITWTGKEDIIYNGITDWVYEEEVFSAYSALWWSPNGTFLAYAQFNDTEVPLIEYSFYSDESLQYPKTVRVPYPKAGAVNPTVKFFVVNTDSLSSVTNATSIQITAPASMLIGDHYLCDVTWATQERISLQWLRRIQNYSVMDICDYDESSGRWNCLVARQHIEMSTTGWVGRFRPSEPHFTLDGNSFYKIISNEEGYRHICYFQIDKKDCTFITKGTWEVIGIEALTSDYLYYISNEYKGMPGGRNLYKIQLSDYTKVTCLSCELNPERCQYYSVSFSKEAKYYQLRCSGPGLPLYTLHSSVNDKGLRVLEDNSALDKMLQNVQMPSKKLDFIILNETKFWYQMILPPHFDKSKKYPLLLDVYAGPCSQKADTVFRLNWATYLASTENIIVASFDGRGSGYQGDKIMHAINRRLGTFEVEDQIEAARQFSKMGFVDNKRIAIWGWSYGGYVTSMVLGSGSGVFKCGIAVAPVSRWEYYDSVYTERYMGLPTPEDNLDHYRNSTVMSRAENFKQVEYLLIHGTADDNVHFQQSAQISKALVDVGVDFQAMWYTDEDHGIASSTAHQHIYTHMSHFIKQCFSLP

Row | IC50 (DPP-IV) [nM] | Compound | changes in the animals' behaviour (rats)
1 | 17 | CC#CCn1c(N2CCCC(N)C2)nc2cnn(Cc3nc4ccccc4c4ccccc34)c(=O)c21 (centres unmarked) [1(1), 2-(3-amino-piperidin-1-yl)-3-(2-butyn-1-yl)-5-[(phenanthridin-6-yl)methyl]-3,5-dihydro-imidazo[4,5-d]pyridazin-4-one] | 
2 | 58 | CC#CCn1c(N2CCCC(N)C2)nc2cnn(Cc3cc4ccccc4c4ccccc34)c(=O)c21 (centres unmarked) [1(2), 2-(3-amino-piperidin-1-yl)-3-(2-butyn-1-yl)-5-[(phenanthren-9-yl)methyl]-3,5-dihydro-imidazo[4,5-d]pyridazin-4-one] | 
3 | 8 | CC#CCn1c(N2CCC[C@@H](N)C2)nc2c(C)nn(Cc3nc4ccccc4c4ccccc34)c(=O)c21 [1(3), 2-((R)-3-amino-piperidin-1-yl)-3-(2-butyn-1-yl)-5-[(phenanthridin-6-yl)methyl]-7-methyl-3,5-dihydro-imidazo[4,5-d]pyridazin-4-one x trifluoroacetic acid] | 
4 | 9 | CC#CCn1c(N2CCC[C@@H](N)C2)nc2c(C)nn(CC3=Nc4ccccc4Oc4ccccc43)c(=O)c21 [1(4), 2-((R)-3-amino-piperidin-1-yl)-3-(2-butyn-1-yl)-5-[(dibenzo[b,f][1,4]oxazepin-11-yl)methyl]-7-methyl-3,5-dihydro-imidazo[4,5-d]pyridazin-4-one] | 
5 | 3 | CC#CCn1c(N2CCC[C@@H](N)C2)nc2cnn(Cc3nc4ccc5ccccc5c4o3)c(=O)c21 [1(7), 2-((R)-3-amino-piperidin-1-yl)-3-(2-butyn-1-yl)-5-[(naphtho[2,1-d]oxazol-2-yl)methyl]-3,5-dihydro-imidazo[4,5-d]pyridazin-4-one] | 
6 | 7 | CC#CCn1c(N2CCC[C@@H](N)C2)nc2cnn(Cc3nc4c(ccc5ccccc54)o3)c(=O)c21 [1(8), 2-((R)-3-amino-piperidin-1-yl)-3-(2-butyn-1-yl)-5-[(naphtho[1,2-d]oxazol-2-yl)methyl]-3,5-dihydro-imidazo[4,5-d]pyridazin-4-one] | 
7 | 3 | CC#CCn1c(N2CCC[C@@H](N)C2)nc2cnn(Cc3nc4ccccc4c(=O)[nH]3)c(=O)c21 [1(9), 2-((R)-3-amino-piperidin-1-yl)-3-(2-butyn-1-yl)-5-[(4-oxo-3,4-dihydro-quinazolin-2-yl)methyl]-3,5-dihydro-imidazo[4,5-d]pyridazin-4-one] | 
8 |  | CC#CCn1c(N2CCCC(N)C2)nc2cnn(CC3=Nc4ccccc4Oc4ccccc43)c(=O)c21 (centres unmarked) [Example 1, 2-(3-amino-piperidin-1-yl)-3-(2-butyn-1-yl)-5-[(dibenzo[b,f][1,4]oxazepin-11-yl)methyl]-3,5-dihydro-imidazo[4,5-d]pyridazin-4-one] | no changes in the animals' behaviour could be detected
